The values below come from patent publication US20030055046A1, “Novel pyrido cyclohexenyl phenyl carboxamides tocolytic oxytocin receptor antagonists” (Wyeth, priority 2001, published 2003).

Where a name gives a salt, the structure may show the parent alone.

In series [1] the target is T1, human vasopressin V2 receptor subtype (Homo sapiens, UniProt P30518).
T1 construct: host or cells: CHO cells, stably transfected (pZeoSV vector)
Briefly: Vasopressin binding in CHO cell membranes expressing human vasopressin V2 subtype receptors. Conditions: [3H]arginine vasopressin; for IC50: value in parentheses. The source says:
Vasopressin Binding in Chinese Hamster Ovary Cell Membranes Expressing Human Vasopressin V2 Subtype Receptors
Chinese Hamster Ovary (CHO) cells stably transfected with the human V2 subtype receptors were obtained from M. Thibonnier, Case Western Reserve University School of Medicine, Cleveland, Ohio.
A. Passaging and Amplification of Cells:
CHO cells transfected with the human vasopressin V2 subtype receptors obtained from M. Thibonnier (pZeoSV vector) are allowed to grow to confluency (approx. >90%) in T-150 flasks under sterile conditions, in a cell culture medium consisting of F-12 Nutrient Mixture (HAM) with L-glutamine (Gibco Cat.# 11765-054) containing 15 mM HEPES (Gibco Cat.# 15630-080), 1% antibiotic/antimycotic (add 5 mL 100×, Gibco Cat.# 15240-062 per 500 mL F-12), 250 μg/mL Zeocin (add 1.25 mL of 100 mg/mL Invitrogen R-250-01 per 500 mL F-12) and 10% Fetal Bovine Serum (Qualified, heat inactivated, Gibco Cat.# 16140-063). The medium is removed by aspiration and the cells washed with 10 mL of Hank's Balanced Salt solution (Gibco Cat.# 14175-095). The salt solution is removed by aspiration and the cells trypsinized with 5 mL of trypsin-EDTA (0.05% trypsin, 0.53 mM EDTA-4Na, Gibco Cat.# 25300-070) for 1 min. The trypsin is removed by aspiration and the cells dislodged by tapping. Cell Culture medium (e.g. 30 mL for 1:30 split) is immediately added and mixed well to inactivate trypsin. 1 mL of detached cells is added to new culture flasks containing fresh Cell Culture medium (e.g. into 25 mL per T-150 flask), and mixed gently. The cells are incubated at 37° C. in 5% CO2. The medium is changed at 3 to 4 day interval (or as appropriate). The cells grow to confluency (approx. >75%-95%) within 7-8 days. All steps are done under sterile conditions.
The cells are washed twice gently with Hank's Balanced Salt solution (e.g. use 10 mL per T-150 flask). The excess solution is removed and the cells bathed for 15-30 min. in an enzyme-free Cell Dissociation Buffer (e.g. use 8 mL Hank's Based, Gibco Cat.# 13150-016 per T-150 flask) until cells are loosened. The contents are transferred to centrifuge tubes (50 mL) kept in an ice bath. All subsequent steps are done at 4° C. The tubes are centrifuged at 300×g for 15 min (1380 rpm on SORVAL, Model RT6000D, using the rotor for 50 mL tubes). The supernatant is discarded and the cells suspended in homogeneizing buffer(10 mM Tris-HCl containing 0.25 M sucrose and 1 mM EDTA, pH 7.4) ensuring that the volume of the buffer is about ten times the volume of the cell pellet. The cells are pooled into a centrifuge tube (50 mL) and homogenized with Polytron at setting 6 for 10 sec. The homogenate is transferred into a Potter-Elvjehm homogeneizer and homogenized with 3 strokes. The homogenate is centrifuged at 1500×g for 60 min at 4° C. (3100 rpm using SORVAL, model RT6000D, using the rotor for 50 mL tubes). The pellet is discarded. The supernatant is centrifuged at 100,000×g for 60 min. at 4° C. (Beckman L8-80M ultracentrifuge; spin at 37,500 rpm with rotor type 70 Ti for 50 mL tubes; 38,000 rpm with type 80Ti for 15 mL tubes; or 35,800 rpm with rotor type 45Ti). The supernatant is discarded and the pellet suspended in 3 to 4 mL of Tris buffer (50 mM TRIS-HCl, pH 7.4). The protein content is estimated by the Bradford or Lowry method. The volume of the membrane suspension is adjusted with the membrane buffer (50 mM Tris-HCl containing 0.1% BSA and 0.1 mM PMSF) to give 3.0 mg/mL (or as appropriate) of protein. The membranes are aliquoted and stored at −70° C.
C. Radioligand Binding Assay:
In wells of a 96-well format microtiter plate, is added 90, 110 or 130 μL (to make up a final volume of 200 μL) of assay buffer containing 50 mM of Tris-HCl (pH 7.4), […], 1 mg % aprotinin, 1 mg % leupeptin, 2 mg % 1,10-phenanthroline, 10 mg % trypsin inhibitor, and 0.1 mM PMSF. The inhibitors are added on the day of the experiment. […]

T1 sequence (P30518 whole entry): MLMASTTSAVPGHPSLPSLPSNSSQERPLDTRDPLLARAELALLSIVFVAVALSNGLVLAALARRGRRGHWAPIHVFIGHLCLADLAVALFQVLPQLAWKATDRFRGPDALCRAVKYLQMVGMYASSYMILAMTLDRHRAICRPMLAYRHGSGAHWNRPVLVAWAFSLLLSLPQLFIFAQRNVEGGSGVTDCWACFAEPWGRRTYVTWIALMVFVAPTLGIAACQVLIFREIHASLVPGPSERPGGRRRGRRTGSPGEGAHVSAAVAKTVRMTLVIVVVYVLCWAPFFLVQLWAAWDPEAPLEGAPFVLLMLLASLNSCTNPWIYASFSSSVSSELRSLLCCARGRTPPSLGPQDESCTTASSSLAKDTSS

Consider `Cc1cc(C(=O)N2Cc3ccc(C(=O)N(C)CCc4ccncc4)n3Cc3ccccc32)ccc1C1=CCCCC1` [Example 13, 10-[4-(1-Cyclohex-1-en-1-yl)-3-methylbenzoyl]-N-methyl-N-[2-(4-pyridinyl)ethyl]-10,11-dihydro-5H-pyrrolo[2,1-c][1,4]benzodiazepine-3-carboxamide], for which the “V2 % inhibition @ 100 nM” value in series [1] is on record as 12%. For the compound `Cc1cc(C(=O)N2Cc3ccc(C(=O)NCc4ccccn4)n3Cc3ccccc32)ccc1C1=CCCCC1` [Example 5, 10-[4-(1-Cyclohex-1-en-1-yl)-3-methylbenzoyl]-N-(2-pyridinylmethyl)-10,11-dihydro-5H-pyrrolo[2,1-c][1,4]benzodiazepine-3-carboxamide], the “V2 % inhibition @ 100 nM” value in series [1] is given as 12%.

In the case of `Cc1cc(C(=O)N2Cc3ccc(C(=O)NCc4cccnc4)n3Cc3ccccc32)ccc1C1=CCCCC1` [Example 6, 10-[4-(1-Cyclohex-1-en-1-yl)-3-methylbenzoyl]-N-(3-pyridinylmethyl)-10,11-dihydro-5H-pyrrolo[2,1-c][1 ,4]benzodiazepine-3-carboxamide], the “V2 % inhibition @ 100 nM” value in series [1] worked out at 3%. Turning to `CC1=C(c2ccc(C(=O)N3Cc4ccc(C(=O)N(C)Cc5cccnc5)n4Cc4ccccc43)cc2C)CCC[C@H]1O` [Example 3, 10-[4-((3R)-3-Hydroxy-2-methyl-cyclohex-1-en-1-yl)-3-methyl-benzoyl]-10,11-dihydro-5H-pyrrolo[2,1-c][1,4]benzodiazepine-3-carboxylic acid methyl-pyridin-3-yl methyl-amide], the “V2 % inhibition @ 100 nM” value in series [1] is reported as 7%. Regarding `Cc1cc(C(=O)N2Cc3ccc(C(=O)N4CCN(c5ccncc5)CC4)n3Cc3ccccc32)ccc1C1=CCCCC1` [Example 12, {10-[4-(1-Cyclohex-1-en-1-yl)-3-methylbenzoyl]-10,11-dihydro-5H-pyrrolo[2,1--c][1,4]benzodiazepin-3-yl}[4-(4-pyridinyl)-1-piperazinyl]methanone], in series [1], the “V2 % inhibition @ 100 nM” value is on record as 21%. With `Cc1cc(C(=O)N2Cc3ccc(C(=O)NCCc4ccccn4)n3Cc3ccccc32)ccc1C1=CCCCC1` [Example 7, 10-[4-(1-Cyclohex-1-en-1-yl)-3-methylbenzoyl]-N-[2-(2-pyridinyl)ethyl]-10,11-pyrrolo[2,1-c][1,4]benzodiazepine-3-carboxamide], the “V2 % inhibition @ 100 nM” value in series [1] is on record as 6%. `CC1=C(c2ccc(C(=O)N3Cc4ccc(C(=O)N(C)Cc5cccnc5)n4Cc4ccccc43)cc2C)CCC[C@H]1O.O=C(O)C(O)C(O)C(=O)O` [Example 4, 10-[4-((3R)-3-Hydroxy-2-methyl-cyclohex-1-en-1-yl)-3-methyl-benzoyl]-10,11-dihydro-5H-pyrrolo[2,1-c][1,4]benzodiazepine-3-carboxylic acid methyl-pyridin-3-yl methyl-amide L-(+)-tartaric acid salt]: in series [1], the “V2 % inhibition @ 100 nM” value was 20%. Regarding `Cc1cc(C(=O)N2Cc3ccc(C(=O)NCc4ccncc4)n3Cc3ccccc32)ccc1C1=CCCCC1` [Example 10, 10-[4-(1-Cyclohex-1-en-1-yl)-3-methylbenzoyl]-N-(4-pyridinylmethyl)-10,11-dihydro-5H-pyrrolo[2,1-c][1,4]benzodiazepine-3-carboxamide], the “V2 % inhibition @ 100 nM” value in series [1] is on record as 15%. For `Cc1cc(C(=O)N2Cc3ccc(C(=O)N(C)CCc4ccccn4)n3Cc3ccccc32)ccc1C1=CCCCC1` [Example 8, 10-[4-(1-Cyclohex-1-en-1-yl)-3-methylbenzoyl]-N-methyl-N-[2-(2-pyridinyl)ethyl]-10,11-dihydro-5H-pyrrolo[2,1-c][1 ,4]benzodiazepine-3-carboxamide], in series [1], the “V2 % inhibition @ 100 nM” value was 16%.

With `Cc1cc(C(=O)N2Cc3ccc(C(=O)N4CCN(c5ccccn5)CC4)n3Cc3ccccc32)ccc1C1=CCCCC1` [Example 9, {10-[4-(1-Cyclohex-1-en-1-yl)-3-methylbenzoyl]-10,11-dihydro-5H-pyrrolo[2,1-c][1,4]benzodiazepin-3-yl}[4-(2-pyridinyl)-1-piperazinyl]methanone], in series [1], the “V2 % inhibition @ 100 nM” value is on record as 21%. In general, IC50 refers to the concentration at which inhibition is half-maximal. As a reminder, the melting point is the temperature, or range, at which the solid turns liquid. Turning to `COc1cc(C2=CCCCC2)c(Cl)cc1C(=O)N1Cc2ccc(C(=O)N(C)Cc3cccnc3)n2Cc2ccccc21` [Example 1, 10-(5-Chloro-4-cyclohex-1-en-1-yl-2-me3thoxybenzoyl)-N-methyl-N-(pyridin-3-ylmethyl)-10,11-dihydro-5H-pyrrolo [2,1-c][1,4]benzodiazepine-3-carboxamide], the melting point was 178 to 179 °C. In series [1], the 50% inhibitory concentration (IC50) turned out to be 1190 nM.

For `Cc1cc(C(=O)N2Cc3ccc(C(=O)N(C)Cc4cccnc4)n3Cc3ccccc32)ccc1C1=CCCCC1` [Example 11, 10-[4-(1-Cyclohex-1-en-1-yl)-3-methylbenzoyl]-N-methyl-N-(3-pyridinylmethyl)-10,11-dihydro-5H-pyrrolo[2,1-c][1,4]benzodiazepine-3-carboxamide], the “V2 % inhibition @ 100 nM” value in series [1] is 17%.

In the case of `COc1cc(C2=CCCCC2)c(Cl)cc1C(=O)N1Cc2ccc(C(=O)N(C)Cc3cccnc3)n2Cc2ccccc21` [Example 2, 10-(5-Chloro-4-cyclohex-1-en-1-yl-2-methoxybenzoyl)-N-methyl-N-(pyridin-3-ylmethyl)-10,11-dihydro-5H-pyrrolo[2,1-c][1,4]benzodiazepine-3-carboxamide L-(+)-tartaric acid salt hemihydrate], the IC50 in series [1] is 1420 nM.
